These results are taken from US7960556B2, “Thiadiazole derivatives for the treatment of neuro-degenerative diseases” (NV reMYND, priority 2006, dated 2011).

For orientation: EC50 means the concentration at which the effect is half-maximal. The low end stands for a more potent agent, the high end for a less potent agent.

The test system of the experiment is α-synuclein cytotoxicity in M17-SYNwt cells. In words: α-synuclein cytotoxicity assay: LDH leakage from paraquat-treated M17-SYNwt neuroblastoma cells.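 As to all read-outs here: paraquat at 32 mM co-added with compound, 40 h exposure, LDH activity released into the culture medium measured, references are DMSO-only cells and paraquat plus DMSO cells.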 The settings on record: Homo sapiens, Neuroblastoma cell; for Emax: read-out: % Inhib. In general terms: Release of lactate dehydrogenase indicates damage to the cell membrane.

In the case of `O=C(NCCN1CCN(c2nc(Cc3ccc(F)cc3)ns2)CC1)NCc1ccccc1` [compound 110, N-benzyl-N′-{2-[4-[3-(4-fluorobenzyl)-1,2,4-thiadiazol-5-yl]piperazin-1-yl]ethyl}urea], the Emax is 77%.
For `CCC(C(=O)NCCN1CCN(c2nc(Cc3ccc(F)cc3)ns2)CC1)c1ccccc1` (stereo not drawn) [compound 111, 2-phenyl-N-{2-[4-[3-(4-fluorobenzyl)-1,2,4-thiadiazol-5-yl]piperazin-1-yl]ethyl}butanamide], the response was half-maximal at 1790 nM (EC50) and the Emax was found to be 79%.
The matching figures for `Fc1ccc(Cc2nsc(N3CCN(Cc4ccccc4)CC3)n2)cc1` [compound 113, 1-benzyl-4-[3-(4-fluorobenzyl)-1,2,4-thiadiazol-5-yl]piperazine]: 1540 nM and 65%.
As for `Fc1ccc(Cc2nsc(N3CCN(Cc4ccc5c(c4)OCO5)CC3)n2)cc1` [compound 114, 1-(1,3-benzodioxol-5-ylmethyl)-4-[3-(4-fluorobenzyl)-1,2,4-thiadiazol-5-yl]piperazine], the Emax was 86%.
For `COc1cccc(Cc2nsc(N3CCN(C(=O)c4ccccc4F)C(C)C3)n2)c1` (stereo not drawn) [compound 115, 1-(2-fluorobenzoyl)-4-[3-(3-methoxybenzyl)-1,2,4-thiadiazol-5-yl]-2-methylpiperazine], it took 36.1 nM to reach a half-maximal effect (EC50) and the Emax stood at 75%.
The corresponding values for `CCc1ccc(C(=O)N2CCN(c3nc(Cc4ccc(F)cc4)ns3)CC2C)cc1` (stereo not drawn) [compound 116, 1-(4-ethylbenzoyl)-4-[3-(4-fluorobenzyl)-1,2,4-thiadiazol-5-yl]-2-methylpiperazine] are 52.2 nM and 71%.
The matching figures for `CCCCc1ccc(C(=O)N2CCN(c3nc(Cc4ccc(C)cc4)ns3)CC2C)cc1` (stereo not drawn) [compound 117, 1-(4-butylbenzoyl)-4-[3-(4-methylbenzyl)-1,2,4-thiadiazol-5-yl]-2-methylpiperazine]: 84.1 nM and 82%.
For `COc1ccc(C(=O)N2CCN(c3nc(Cc4ccc(F)cc4)ns3)CC2C)cc1` (stereo not drawn) [compound 118, 1-(4-methoxybenzoyl)-4-[3-(4-fluorobenzyl)-1,2,4-thiadiazol-5-yl]-2-methylpiperazine], the midpoint of the response, the EC50, lay at 91.1 nM and the Emax stood at 64%.
On to `CCCCc1ccc(C(=O)N2CCN(c3nc(Cc4ccc(F)cc4)ns3)CC2C)cc1` (stereo not drawn) [compound 120, 1-(4-butylbenzoyl)-4-[3-(4-fluorobenzyl)-1,2,4-thiadiazol-5-yl]-2-methylpiperazine], for which a half-maximal effect (EC50) was put at 98.7 nM and the Emax was 120%.
The corresponding values for `CCCCCCc1ccc(C(=O)N2CCN(c3nc(Cc4ccc(F)cc4)ns3)CC2)cc1` [compound 121, 1-(4-hexylbenzoyl)-4-[3-(4-fluorobenzyl)-1,2,4-thiadiazol-5-yl]piperazine] are 120 nM and 64%.
As for `CC1CN(c2nc(Cc3ccc(F)cc3)ns2)CCN1C(=O)c1cccc(Cl)c1` (stereo not drawn) [compound 122, 1-(3-chlorobenzoyl)-4-[3-(4-fluorobenzyl)-1,2,4-thiadiazol-5-yl]-2-methylpiperazine], it took 140 nM to reach a half-maximal effect (EC50) and the Emax turned out to be 92%.
The corresponding values for `COc1cccc(Cc2nsc(N3CCN(C(=O)c4ccc(F)cc4)C(C)C3)n2)c1` (stereo not drawn) [compound 123, 1-(4-fluorobenzoyl)-4-[3-(3-methoxybenzyl)-1,2,4-thiadiazol-5-yl]-2-methylpiperazine] are 140 nM and 95%.
The corresponding values for `COc1cccc(Cc2nsc(N3CCN(C(=O)c4ccc(C)cc4)C(C)C3)n2)c1` (stereo not drawn) [compound 124, 1-(4-methylbenzoyl)-4-[3-(3-methoxybenzyl)-1,2,4-thiadiazol-5-yl]-2-methylpiperazine] are 140 nM and 57%.
The corresponding values for `CC1CN(c2nc(Cc3ccc(Cl)cc3)ns2)CCN1C(=O)c1cccc(F)c1` (stereo not drawn) [compound 125, 1-(3-fluorobenzoyl)-4-[3-(4-chlorobenzyl)-1,2,4-thiadiazol-5-yl]-2-methylpiperazine] are 160 nM and 68%.
Take `CC1CN(c2nc(Cc3ccc(F)cc3)ns2)CCN1C(=O)c1ccccc1` (stereo not drawn) [compound 126, 1-benzoyl-4-[3-(4-fluorobenzyl)-1,2,4-thiadiazol-5-yl]-2-methylpiperazine]: it took 210 nM to reach a half-maximal effect (EC50) and the Emax amounted to 63%.
`CC1CN(c2nc(Cc3ccc(F)cc3)ns2)CCN1C(=O)c1ccc(F)cc1` (stereo not drawn) [compound 127, 1-(4-fluorobenzoyl)-4-[3-(4-fluorobenzyl)-1,2,4-thiadiazol-5-yl]-2-methylpiperazine]: the EC50 is 230 nM and the Emax turned out to be 108%.
The matching figures for `CC1CN(c2nc(Cc3ccc(F)cc3)ns2)CCN1C(=O)c1ccc(C(C)(C)C)cc1` (stereo not drawn) [compound 128, 1-(4-tert-butylbenzoyl)-4-[3-(4-fluorobenzyl)-1,2,4-thiadiazol-5-yl]-2-methylpiperazine]: 240 nM and 95%.
`CC1CN(c2nc(Cc3ccc(F)cc3)ns2)CCN1C(=O)c1ccc(-c2ccccc2)cc1` (stereo not drawn) [compound 129, 1-(1,1′-biphenyl-4-ylcarbonyl)-4-[3-(4-fluorobenzyl)-1,2,4-thiadiazol-5-yl]-2-methylpiperazine]: the EC50 came to 240 nM and the Emax was determined as 61%.
The corresponding values for `CCc1ccc(C(=O)N2CCN(c3nc(Cc4ccc(C)cc4)ns3)CC2)cc1` [compound 131, 1-(4-ethylbenzoyl)-4-[3-(4-methylbenzyl)-1,2,4-thiadiazol-5-yl]piperazine] are 250 nM and 91%.
The matching figures for `CC1CN(c2nc(Cc3ccc(F)cc3)ns2)CCN1C(=O)c1ccc2ccccc2c1` (stereo not drawn) [compound 132, 1-(2-naphthoyl)-4-[3-(4-fluorobenzyl)-1,2,4-thiadiazol-5-yl]-2-methylpiperazine]: 260 nM and 74%.
The matching figures for `COc1ccccc1C(=O)N1CCN(c2nc(Cc3ccc(F)cc3)ns2)CC1C` (stereo not drawn) [compound 133, 1-(2-methoxybenzoyl)-4-[3-(4-fluorobenzyl)-1,2,4-thiadiazol-5-yl]-2-methylpiperazine]: 290 nM and 118%.
With `CCCCCc1ccc(C(=O)N2CCN(c3nc(Cc4ccc(C)cc4)ns3)CC2C)cc1` (stereo not drawn) [compound 134, 1-(4-pentylbenzoyl)-4-[3-(4-methylbenzyl)-1,2,4-thiadiazol-5-yl]-2-methylpiperazine], a half-maximal effect (EC50) was put at 300 nM and the Emax is 75%.
The matching figures for `CC1CN(c2nc(Cc3ccc(F)cc3)ns2)CCN1C(=O)c1ccc(Br)cc1` (stereo not drawn) [compound 135, 1-(4-bromobenzoyl)-4-[3-(4-fluorobenzyl)-1,2,4-thiadiazol-5-yl]-2-methylpiperazine]: 310 nM and 73%.
`COc1ccc(C(=O)N2CCN(c3nc(Cc4ccc(F)cc4)ns3)CC2C)c(OC)c1` (stereo not drawn) [compound 136, 1-(2,4-dimethoxybenzoyl)-4-[3-(4-fluorobenzyl)-1,2,4-thiadiazol-5-yl]-2-methylpiperazine]: it took 340 nM to reach a half-maximal effect (EC50) and the Emax came to 83%.
The corresponding values for `O=C(c1cc(Cl)cc(Cl)c1)N1CCN(c2nc(Cc3ccc(F)cc3)ns2)CC1` [compound 137, 1-(3,5-dichlorobenzoyl)-4-[3-(4-fluorobenzyl)-1,2,4-thiadiazol-5-yl]piperazine] are 350 nM and 68%.
